The structures appear in SMILES notation.

A word on the inhibition: it is the drop in the measured response relative to a control, in per cent.

Sequence of Human VPS34 (Q8NEB9 whole entry): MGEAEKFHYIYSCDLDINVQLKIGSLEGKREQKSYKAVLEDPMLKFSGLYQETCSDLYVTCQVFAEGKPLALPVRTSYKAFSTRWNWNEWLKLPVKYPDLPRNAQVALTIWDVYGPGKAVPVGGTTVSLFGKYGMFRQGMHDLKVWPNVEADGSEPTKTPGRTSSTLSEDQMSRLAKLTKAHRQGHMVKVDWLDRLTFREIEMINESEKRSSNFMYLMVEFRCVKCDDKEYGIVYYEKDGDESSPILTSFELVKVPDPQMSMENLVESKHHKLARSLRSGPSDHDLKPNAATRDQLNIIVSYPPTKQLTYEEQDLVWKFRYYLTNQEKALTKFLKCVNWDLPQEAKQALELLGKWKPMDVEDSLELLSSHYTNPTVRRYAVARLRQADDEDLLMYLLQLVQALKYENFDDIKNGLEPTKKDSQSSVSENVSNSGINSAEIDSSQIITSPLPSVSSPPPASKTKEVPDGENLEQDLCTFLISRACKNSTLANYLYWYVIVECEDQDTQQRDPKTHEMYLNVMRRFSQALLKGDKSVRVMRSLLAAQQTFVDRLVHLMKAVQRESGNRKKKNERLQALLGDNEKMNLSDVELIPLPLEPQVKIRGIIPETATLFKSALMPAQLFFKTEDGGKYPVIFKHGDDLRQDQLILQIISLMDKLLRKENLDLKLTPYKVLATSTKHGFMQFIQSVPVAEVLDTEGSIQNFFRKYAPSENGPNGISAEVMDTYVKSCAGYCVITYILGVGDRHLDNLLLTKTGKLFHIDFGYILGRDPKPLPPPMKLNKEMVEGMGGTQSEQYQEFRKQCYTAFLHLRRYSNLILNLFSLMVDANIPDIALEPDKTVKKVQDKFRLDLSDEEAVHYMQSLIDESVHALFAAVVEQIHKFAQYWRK

The first assay has as its target Human VPS34 (Homo sapiens (Human), UniProt Q8NEB9). Description: Human VPS34 enzyme assay (Adapta TR-FRET). Format: biochemical. Conditions: compound concentration 1.11 μM. For orientation: In TR-FRET formats the signal depends on donor and acceptor labels being close together.
Take `CC(=O)Nc1cc(-c2cnc(C)c(NS(=O)(=O)N3CC4CCC3C4)c2)ccn1` (stereo not shown) [Compound I-445, N-{5-[(2-azabicyclo[2.2.1]hept-2-ylsulfonyl)amino]-6-methyl-3,4′-bipyridin-2′-yl}acetamide]: the “Percent Inhibition” value is listed as above 99%.

Staying with this assay, now noted: compound concentration 1.11 μM; read-out: Percent Inhibition.
For the compound `CC(=O)Nc1cc(-c2cnc3c(c2)S(=O)(=O)N[C@H](c2ccccc2)CO3)ccn1` [Compound I-420, (R)-N-(4-(1,1-dioxido-3-phenyl-3,4-dihydro-2H-pyrido[2,3-b][1,4,5]oxathiazepin-8-yl)pyridin-2-yl)acetamide], the inhibition at 1.11 µM amounted to 59%.

Consider `Cc1nccc(Nc2cc(-c3cncc(C(C)Oc4ccccc4F)c3)ccn2)n1` (stereo not shown) [Compound I-422, 5-[1-(2-fluorophenoxy)ethyl]-N-(2-methylpyrimidin-4-yl)-3,4′-bipyridin-2′-amine], for which the inhibition at 1.11 µM came to 96%.

For `COc1ncc(-c2ccnc(NC(C)=O)c2)cc1C(=O)N(C)c1ccc(F)cc1F` [Compound I-423, 2′-acetamido-N-(2,4-difluorophenyl)-6-methoxy-N-methyl-3,4′-bipyridine-5-carboxamide], the inhibition at 1.11 µM was above 99%.

With `Cc1nccc(Nc2cc(-c3cnc(C)c(OCCO)c3)ccn2)n1` [Compound I-424, 2-({6-methyl-2′-[(2-methylpyrimidin-4-yl)amino]-3,4′-bipyridin-5-yl}oxy)ethanol], the inhibition at 1.11 µM is above 99%.

Take `CC(=O)Nc1cc(-c2cnc(Cl)c(N3CCCS3(=O)=O)c2C)ccn1` [Compound I-425, N-[6-chloro-5-(1,1-dioxidoisothiazolidin-2-yl)-4-methyl-3,4′-bipyridin-2′-yl]acetamide]: the inhibition at 1.11 µM stood at 100%.

With `COc1ncc(-c2ccnc(NC(C)=O)c2)cc1S(=O)(=O)NC1CCC1` [Compound I-426, N-[5-(cyclobutylsulfamoyl)-6-methoxy-3,4′-bipyridin-2′-yl]acetamide], the inhibition at 1.11 µM is above 99%.

For `CN(C)S(=O)(=O)Nc1cc(-c2ccnc(Nc3ccnc(C4CC4)n3)c2)cn2nccc12` [Compound I-427, N′-(6-{2-[(2-cyclopropylpyrimidin-4-yl)amino]pyridin-4-yl}pyrazolo[1,5-a]pyridin-4yl)-N,N-dimethylsulfuric diamide], the inhibition at 1.11 µM is above 99%.

Consider `CC(=O)Nc1cc(-c2cc(OS(=O)(=O)N(C)C)c3ccnn3c2)ccn1` [Compound I-428, 6-(2-acetamidopyridin-4-yl)pyrazolo[1,5-a]pyridin-4-yl dimethylsulfamate], for which the inhibition at 1.11 µM is above 99%.

`CC(=O)Nc1cc(-c2cnc(Cl)c(NS(=O)(=O)c3ccc(C#N)cc3)c2C)ccn1` [Compound I-429, N-(6-chloro-5-{[(4-cyanophenyl)sulfonyl]amino}-4-methyl-3,4′-bipyridin-2′-yl)acetamide]: the inhibition at 1.11 µM amounted to 96%.

Regarding `Cc1cnc(NC(=O)C2CC2)cc1-c1cnc(Cl)c(NS(=O)(=O)c2ccc(F)cc2F)c1C` [Compound I-430, N-(6-chloro-5-{[(2,4-difluorophenyl)sulfonyl]amino}-4,5′-dimethyl-3,4′-bipyridin-2′-yl)cyclopropanecarboxamide], the inhibition at 1.11 µM was 92%.

On to `CC(=O)Nc1cc(-c2cnc(C)c(C(=O)Nc3ccc(F)cc3F)c2)ccn1` [Compound I-431, 2′-acetamido-N-(2,4-difluorophenyl)-6-methyl-3,4′-bipyridine-5-carboxamide], for which the inhibition at 1.11 µM came to 74%.

As to `COc1ncc(-c2ccnc(NC(C)=O)c2)cc1S(=O)(=O)Nc1cc(Cl)ccc1Cl` [Compound I-432, N-{5-[(2,5-dichlorophenyl)sulfamoyl]-6-methoxy-3,4′-bipyridin-2′-yl}acetamide], the inhibition at 1.11 µM amounted to 98%.

As to `Cc1ncc(-c2ccnc(NC(=O)C3CC3)c2)cc1NS(=O)(=O)c1ccc(Cl)cc1F` [Compound I-433, N-(5-{[(4-chloro-2-fluorophenyl)sulfonyl]amino}-6-methyl-3,4′-bipyridin-2′-yl)cyclopropanecarboxamide], the inhibition at 1.11 µM stood at 93%.

With `CC(=O)Nc1cc(-c2cnc(Cl)c(C(=O)N3CCC3)c2)c(C)cn1` [Compound I-434], the inhibition at 1.11 µM stood at 36%.

Regarding `Cc1c(-c2ccnc(Nc3ccnc(C4CC4)n3)c2)cnc(Cl)c1NS(=O)(=O)N(C)C` [Compound I-435, N′-{6-chloro-2′-[(2-cyclopropylpyrimidin-4-yl)amino]-4-methyl-3,4′-bipyridin-5-yl}-N,N-dimethylsulfuric diamide], the inhibition at 1.11 µM amounted to 96%.

For the compound `CNc1ncc(-c2ccnc(NC(C)=O)c2)c(C)c1S(=O)(=O)NC(C)(C)C` [Compound I-436, N-[5-(tert-butylsulfamoyl)-4-methyl-6-(methylamino)-3,4′-bipyridin-2′-yl]acetamide], the inhibition at 1.11 µM is 89%.

Consider `CC(=O)Nc1cc(-c2cnc(Cl)c(NS(=O)(=O)c3cccc4ncccc34)c2C)ccn1` [Compound I-437, N-{6-chloro-4-methyl-5-[(quinolin-5-ylsulfonyl)amino]-3,4′-bipyridin-2′-yl}acetamide], for which the inhibition at 1.11 µM is above 99%.

`CC(=O)Nc1cc(-c2cnc(Cl)c(S(=O)(=O)NC3CCC3)c2)ccn1` [Compound I-438, N-[6-chloro-5-(cyclobutylsulfamoyl)-3,4′-bipyridin-2′-yl]acetamide]: the inhibition at 1.11 µM is above 99%.

As for `Cc1nccc(Nc2cc(-c3cnc(C)c(NC(=O)Nc4ccccc4)c3)ccn2)n1` [Compound I-439, 1-{6-methyl-2′-[(2-methylpyrimidin-4-yl)amino]-3,4′-bipyridin-5-yl}-3-phenylurea], the inhibition at 1.11 µM turned out to be 69%.

As to `Cc1nccc(Nc2cc(-c3cncc(OC4CCc5c(F)cccc54)c3)ccn2)n1` (stereo not shown) [Compound I-440, 5-[(4-fluoro-2,3-dihydro-1H-inden-1-yl)oxy]-N-(2-methylpyrimidin-4-yl)-3,4′-bipyridin-2′-amine], the inhibition at 1.11 µM was 83%.

For `Cc1ncc(-c2ccnc(NC(=O)C3CC3(F)F)c2)cc1NS(=O)(=O)c1ccc(Cl)cc1F` (stereo not shown) [Compound I-441, N-(5-{[(4-chloro-2-fluorophenyl)sulfonyl]amino}-6-methyl-3,4′-bipyridin-2′-yl)-2,2-difluorocyclopropanecarboxamide], the inhibition at 1.11 µM is above 99%.

Consider `COc1ncc(-c2ccnc(NC(C)=O)c2)c(C)c1S(=O)(=O)NC(C)(C)C` [Compound I-442, N-[5-(tert-butylsulfamoyl)-6-methoxy-4-methyl-3,4′-bipyridin-2′-yl]acetamide], for which the inhibition at 1.11 µM was above 99%.

As for `CC(=O)Nc1cc(-c2cncc(S(=O)(=O)NC(C)(C)C)c2)ccn1` [Compound I-443, N-[5-(tert-butylsulfamoyl)-3,4′-bipyridin-2′-yl]acetamide], the inhibition at 1.11 µM is above 99%.

For `CC(=O)Nc1cc(-c2cnc(Cl)c(NS(=O)(=O)c3ccc(Br)cc3F)c2C)ccn1` [Compound I-444, N-(5-{[(4-bromo-2-fluorophenyl)sulfonyl]amino}-6-chloro-4-methyl-3,4′-bipyridin-2′-yl)acetamide], the inhibition at 1.11 µM was above 99%.

For `Cc1nccc(Nc2cc(-c3cnc(C)c(OC(C)C)c3)ccn2)n1` [Compound I-446, 5-isopropoxy-6-methyl-N-(2-methylpyrimidin-4-yl)-3,4′-bipyridin-2′-amine], the inhibition at 1.11 µM was above 99%.

With `CC(=O)Nc1cc(-c2cnc(C)c(NS(=O)(=O)N3CCOCC3)c2)ccn1` [Compound I-447, N-{6-methyl-5-[(morpholin-4-ylsulfonyl)amino]-3,4′-bipyridin-2′-yl}acetamide], the inhibition at 1.11 µM came out at 98%.

Take `CC(=O)Nc1cc(-c2cnc(Cl)c(N3CCCNS3(=O)=O)c2)ccn1` [Compound I-448, N-[6-chloro-5-(1,1-dioxido-1,2,6-thiadiazinan-2-yl)-3,4′-bipyridin-2′-yl]acetamide]: the inhibition at 1.11 µM stood at 87%.

For the compound `CNc1ncc(-c2ccnc(NC(C)=O)c2)cc1C(=O)N(C)C12CC(C1)C2` [Compound I-449, 2′-acetamido-N-(bicyclo[1.1.1]pent-1-yl)-N-methyl-6-(methylamino)-3,4′-bipyridine-5-carboxamide], the inhibition at 1.11 µM was 94%.

For the compound `CC(=O)Nc1cc(-c2ccnc(Nc3ccnc(C)n3)c2)cn2nccc12` [Compound I-450, N-(6-{2-[(2-methylpyrimidin-4-34)amino]pyridin-4-yl}pyrazolo[1,5-a]pyridin-4-yl)acetamide], the inhibition at 1.11 µM stood at 87%.

As to `CC(=O)Nc1cc(-c2cncc(N3CCCN(C)S3(=O)=O)c2)ccn1` [Compound I-452, N-[5-(6-methyl-1,1-dioxido-1,2,6-thiadiazinan-2-yl)-3,4′-bipyridin-2′-yl]acetamide], the inhibition at 1.11 µM was above 99%.

As for `Cc1nccc(Nc2cc(-c3c[n+]([O-])c(Cl)c(NS(=O)(=O)c4ccc(F)cc4F)c3C)ccn2)n1` [Compound I-454, N-(2-chloro-4-methyl-5-{2-[(2-methylpyrimidin-4-yl)amino]pyridin-4-yl}-1-oxidopyridin-3-yl)-2,4-difluorobenzenesulfonamide], the inhibition at 1.11 µM is above 99%.

As for `CNS(=O)(=O)Nc1cc(-c2ccnc(NC(C)=O)c2)cnc1C` [Compound I-455, N-{6-methyl-5-[(methylsulfamoyl)amino]-3,4′-bipyridin-2′-yl}acetamide], the inhibition at 1.11 µM was above 99%.

In the case of `CCOC(=O)Nc1cc(-c2cnc(C)c(NS(=O)(=O)c3ccc(Cl)cc3F)c2)ccn1` [Compound I-456, ethyl (5-{[(4-chloro-2-fluorophenyl)sulfonyl]amino}-6-methyl-3,4′-bipyridin-2′-yl)carbamate], the inhibition at 1.11 µM is above 99%.

Turning to `Cc1nccc(Nc2cc(-c3cnc(Cl)c(C(=O)N4CCC4)c3C)ccn2)n1` [Compound I-457, azetidin-1-yl{6-chloro-4-methyl-2′-[(2-methylpyrimidin-4-yl)amino]-3,4′-bipyridin-5-yl}methanone], the inhibition at 1.11 µM was 95%.

Consider `CC(=O)Nc1cc(-c2cncc(N(C)S(=O)(=O)N(C)C)c2)ccn1` [Compound I-458, N-{5-[(dimethylsulfamoyl)(methyl)amino]-3,4′-bipyridin-2′-yl}acetamide], for which the inhibition at 1.11 µM is above 99%.

Take `CC(=O)Nc1cc(-c2cncc(S(=O)(=O)Nc3ccccc3)c2)ccn1` [Compound I-459, N-[5-(phenylsulfamoyl)-3,4′-bipyridin-2′-yl]acetamide]: the inhibition at 1.11 µM worked out at 96%.
